{
  "source": "paper PMC8934569",
  "about": "(Cancer chemotherapy and pharmacology, 2021)",
  "assay": "Drug-related adverse events graded by NCI CTCAE version 4.0",
  "type": "in vivo, human",
  "key": {"[1]": {"conditions": "Group 2 N=22: veliparib Days 1-4 + AC Day 3"}, "[2]": {"conditions": "Groups 3 and 4 N=27: veliparib Days 1-7 or 1-14 + AC Day 1"}},
  "data": [
    {"smiles": "C[C@]1(c2nc3c(C(N)=O)cccc3[nH]2)CCCN1", "note": "[veliparib, 2-[(R)-2-methylpyrrolidin-2-yl]-1H-benzimidazole-4-carboxamide]", "values": [
      {"measurement": "Anorexia, Gr 4", "setting": "[1]", "result": "0 (0) n (%)"},
      {"measurement": "Dehydration, All Grades", "setting": "[1]", "result": "1 (5) n (%)"},
      {"measurement": "Dehydration, Gr 3", "setting": "[1]", "result": "1 (5) n (%)"},
      {"measurement": "Dehydration, Gr 4", "setting": "[1]", "result": "0 (0) n (%)"},
      {"measurement": "Fatigue, All Grades", "setting": "[1]", "result": "16 (73) n (%)"},
      {"measurement": "Fatigue, Gr 3", "setting": "[1]", "result": "0 (0) n (%)"},
      {"measurement": "Fatigue, Gr 4", "setting": "[1]", "result": "0 (0) n (%)"},
      {"measurement": "Febrile neutropenia, All Grades", "setting": "[1]", "result": "3 (14) n (%)"},
      {"measurement": "Febrile neutropenia, Gr 3", "setting": "[1]", "result": "2 (9) n (%)"},
      {"measurement": "Febrile neutropenia, Gr 4", "setting": "[1]", "result": "2 (9) n (%)"},
      {"measurement": "Hyponatremia, All Grades", "setting": "[1]", "result": "1 (5) n (%)"},
      {"measurement": "Hyponatremia, Gr 3", "setting": "[1]", "result": "1 (5) n (%)"},
      {"measurement": "Hyponatremia, Gr 4", "setting": "[1]", "result": "0 (0) n (%)"},
      {"measurement": "Hypophosphatemia, All Grades", "setting": "[1]", "result": "0 (0) n (%)"},
      {"measurement": "Hypophosphatemia, Gr 3", "setting": "[1]", "result": "0 (0) n (%)"},
      {"measurement": "Hypophosphatemia, Gr 4", "setting": "[1]", "result": "0 (0) n (%)"},
      {"measurement": "Hypotension, All Grades", "setting": "[1]", "result": "0 (0) n (%)"},
      {"measurement": "Hypotension, Gr 3", "setting": "[1]", "result": "0 (0) n (%)"},
      {"measurement": "Hypotension, Gr 4", "setting": "[1]", "result": "0 (0) n (%)"},
      {"measurement": "Lymphocyte count decreased, All Grades", "setting": "[1]", "result": "13 (59) n (%)"},
      {"measurement": "Lymphocyte count decreased, Gr 3", "setting": "[1]", "result": "10 (45) n (%)"},
      {"measurement": "Lymphocyte count decreased, Gr 4", "setting": "[1]", "result": "2 (9) n (%)"},
      {"measurement": "Nausea, All Grades", "setting": "[1]", "result": "10 (45) n (%)"},
      {"measurement": "Nausea, Gr 3", "setting": "[1]", "result": "0 (0) n (%)"},
      {"measurement": "Nausea, Gr 4", "setting": "[1]", "result": "0 (0) n (%)"},
      {"measurement": "Neutrophil count decreased, All Grades", "setting": "[1]", "result": "19 (86) n (%)"},
      {"measurement": "Neutrophil count decreased, Gr 3", "setting": "[1]", "result": "10 (45) n (%)"},
      {"measurement": "Neutrophil count decreased, Gr 4", "setting": "[1]", "result": "13 (59) n (%)"},
      {"measurement": "Platelet count decreased, All Grades", "setting": "[1]", "result": "14 (64) n (%)"},
      {"measurement": "Platelet count decreased, Gr 3", "setting": "[1]", "result": "4 (18) n (%)"},
      {"measurement": "Platelet count decreased, Gr 4", "setting": "[1]", "result": "2 (9) n (%)"},
      {"measurement": "Sepsis, All Grades", "setting": "[1]", "result": "1 (5) n (%)"},
      {"measurement": "Sepsis, Gr 3", "setting": "[1]", "result": "0 (0) n (%)"},
      {"measurement": "Sepsis, Gr 4", "setting": "[1]", "result": "1 (5) n (%)"},
      {"measurement": "Vomiting, All Grades", "setting": "[1]", "result": "3 (14) n (%)"},
      {"measurement": "Vomiting, Gr 3", "setting": "[1]", "result": "0 (0) n (%)"},
      {"measurement": "Vomiting, Gr 4", "setting": "[1]", "result": "0 (0) n (%)"},
      {"measurement": "White blood cell decreased, All Grades", "setting": "[1]", "result": "21 (95) n (%)"},
      {"measurement": "White blood cell decreased, Gr 3", "setting": "[1]", "result": "11 (50) n (%)"},
      {"measurement": "White blood cell decreased, Gr 4", "setting": "[1]", "result": "14 (64) n (%)"},
      {"measurement": "Anemia, All Grades", "setting": "[2]", "result": "18 (67) n (%)"},
      {"measurement": "Anemia, Gr 3", "setting": "[2]", "result": "11 (41) n (%)"},
      {"measurement": "Anemia, Gr 4", "setting": "[2]", "result": "1 (4) n (%)"},
      {"measurement": "Anorexia, All Grades", "setting": "[2]", "result": "0 (0) n (%)"},
      {"measurement": "Anorexia, Gr 3", "setting": "[2]", "result": "0 (0) n (%)"},
      {"measurement": "Anorexia, Gr 4", "setting": "[2]", "result": "0 (0) n (%)"},
      {"measurement": "Dehydration, All Grades", "setting": "[2]", "result": "0 (0) n (%)"},
      {"measurement": "Dehydration, Gr 3", "setting": "[2]", "result": "0 (0) n (%)"},
      {"measurement": "Dehydration, Gr 4", "setting": "[2]", "result": "0 (0) n (%)"},
      {"measurement": "Fatigue, All Grades", "setting": "[2]", "result": "4 (15) n (%)"},
      {"measurement": "Fatigue, Gr 3", "setting": "[2]", "result": "0 (0) n (%)"},
      {"measurement": "Fatigue, Gr 4", "setting": "[2]", "result": "0 (0) n (%)"},
      {"measurement": "Febrile neutropenia, All Grades", "setting": "[2]", "result": "3 (11) n (%)"},
      {"measurement": "Febrile neutropenia, Gr 3", "setting": "[2]", "result": "3 (11) n (%)"},
      {"measurement": "Febrile neutropenia, Gr 4", "setting": "[2]", "result": "0 (0) n (%)"},
      {"measurement": "Hyponatremia, All Grades", "setting": "[2]", "result": "0 (0) n (%)"},
      {"measurement": "Hyponatremia, Gr 3", "setting": "[2]", "result": "0 (0) n (%)"},
      {"measurement": "Hyponatremia, Gr 4", "setting": "[2]", "result": "0 (0) n (%)"},
      {"measurement": "Hypophosphatemia, All Grades", "setting": "[2]", "result": "0 (0) n (%)"},
      {"measurement": "Hypophosphatemia, Gr 3", "setting": "[2]", "result": "0 (0) n (%)"},
      {"measurement": "Hypophosphatemia, Gr 4", "setting": "[2]", "result": "0 (0) n (%)"},
      {"measurement": "Hypotension, All Grades", "setting": "[2]", "result": "0 (0) n (%)"},
      {"measurement": "Hypotension, Gr 3", "setting": "[2]", "result": "0 (0) n (%)"},
      {"measurement": "Hypotension, Gr 4", "setting": "[2]", "result": "0 (0) n (%)"},
      {"measurement": "Lymphocyte count decreased, All Grades", "setting": "[2]", "result": "25 (93) n (%)"},
      {"measurement": "Lymphocyte count decreased, Gr 3", "setting": "[2]", "result": "23 (85) n (%)"},
      {"measurement": "Nausea, All Grades", "setting": "[2]", "result": "6 (22) n (%)"},
      {"measurement": "Nausea, Gr 3", "setting": "[2]", "result": "0 (0) n (%)"},
      {"measurement": "Nausea, Gr 4", "setting": "[2]", "result": "0 (0) n (%)"},
      {"measurement": "Neutrophil count decreased, All Grades", "setting": "[2]", "result": "21 (78) n (%)"},
      {"measurement": "Neutrophil count decreased, Gr 4", "setting": "[2]", "result": "19 (70) n (%)"},
      {"measurement": "Platelet count decreased, All Grades", "setting": "[2]", "result": "19 (70) n (%)"},
      {"measurement": "Platelet count decreased, Gr 3", "setting": "[2]", "result": "7 (26) n (%)"},
      {"measurement": "Platelet count decreased, Gr 4", "setting": "[2]", "result": "6 (22) n (%)"},
      {"measurement": "Sepsis, All Grades", "setting": "[2]", "result": "0 (0) n (%)"},
      {"measurement": "Sepsis, Gr 3", "setting": "[2]", "result": "0 (0) n (%)"},
      {"measurement": "Sepsis, Gr 4", "setting": "[2]", "result": "0 (0) n (%)"},
      {"measurement": "Vomiting, All Grades", "setting": "[2]", "result": "4 (15) n (%)"},
      {"measurement": "Vomiting, Gr 3", "setting": "[2]", "result": "0 (0) n (%)"},
      {"measurement": "Vomiting, Gr 4", "setting": "[2]", "result": "0 (0) n (%)"},
      {"measurement": "White blood cell decreased, All Grades", "setting": "[2]", "result": "24 (89) n (%)"},
      {"measurement": "White blood cell decreased, Gr 3", "setting": "[2]", "result": "21 (78) n (%)"},
      {"measurement": "White blood cell decreased, Gr 4", "setting": "[2]", "result": "14 (52) n (%)"},
      {"measurement": "Patients given growth factor support after cycle 1", "setting": "across the whole trial (n=22 of 80)", "result": 28, "unit": "%"},
      {"measurement": "Patients requiring a dose reduction of veliparib", "setting": "overall, 80 patients enrolled", "result": 23, "unit": "patients"}
    ]}
  ]
}
